Results taken from PubChem BioAssay (NCI).
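96-well plates; 48 h exposure; 5 concentrations. Endpoints by linear interpolation between flanking doses. Not reached: highest tested concentration assigned. At the TGI there is no net growth.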

Legend:
Experiment in all cases: growth of human tumour cells (NCI), 48 h
[1] = tested on: ACHN renal
[2] = tested on: A498 renal
[3] = tested on: RXF 393 renal
[4] = tested on: SK-MEL-5 melanoma
[5] = tested on: CAKI-1 renal
[6] = tested on: SK-OV-3 ovarian
[7] = tested on: MALME-3M melanoma
[8] = tested on: T-47D breast
[9] = tested on: SNB-75 CNS
[10] = tested on: M14 melanoma
[11] = tested on: MOLT-4 leukemia
[12] = tested on: HS 578T breast
[13] = tested on: MDA-MB-231 breast
[14] = tested on: SK-MEL-2 melanoma
[15] = tested on: TK-10 renal
[16] = tested on: OVCAR-5 ovarian
[17] = tested on: KM12 colon
[18] = tested on: OVCAR-4 ovarian
[19] = tested on: HT29 colon
[20] = tested on: COLO 205 colon
[21] = tested on: NCI-H460 lung
[22] = tested on: HCT-15 colon
[23] = tested on: UACC-257 melanoma
[24] = tested on: OVCAR-8 ovarian
[25] = tested on: SNB-19 CNS
[26] = tested on: NCI/ADR-RES ovarian
[27] = tested on: UACC-62 melanoma
[28] = tested on: RPMI-8226 leukemia
[29] = tested on: PC-3 prostate
[30] = tested on: SW-620 colon
[31] = tested on: NCI-H226 lung
[32] = tested on: BT-549 breast
[33] = tested on: MDA-MB-435
[34] = tested on: HCC-2998 colon
[35] = tested on: 786-0 renal
[36] = tested on: SF-268 CNS
[37] = tested on: OVCAR-3 ovarian
[38] = tested on: UO-31 renal
[39] = tested on: IGROV1 ovarian
[40] = tested on: DU-145 prostate
[41] = tested on: SK-MEL-28 melanoma
[42] = tested on: A549 NSCLC
[43] = tested on: NCI-H23 lung
[44] = tested on: HOP-92 NSCLC
[45] = tested on: SR leukemia
[46] = tested on: LOX IMVI melanoma
[47] = tested on: HCT-116 colon
[48] = tested on: K-562 leukemia
[49] = tested on: SN12C renal
[50] = tested on: SF-295 CNS
[51] = tested on: U251 CNS
[52] = tested on: HOP-62 NSCLC
[53] = tested on: MDA-N
[54] = tested on: NCI-H522 lung
[55] = tested on: MCF7 breast
[56] = tested on: SF-539 CNS
[57] = tested on: EKVX NSCLC
[58] = tested on: HL-60(TB) leukemia
[59] = tested on: CCRF-CEM leukemia

Measured: TGI

CCOC(=O)c1sc2nc(SC)nc(N3CCCCC3)c2c1N
> 100 µM: [1] | [2] | [3] | [4] | [5] | [6] | [7] | [8] | [9] | [10] | [11] | [12] | [13] | [14] | [15] | [16] | [17] | [18] | [19] | [20] | [21] | [22] | [23] | [24] | [25] | [26] | [27] | [28] | [29] | [30] | [31] | [32] | [33] | [34] | [35] | [36] | [37] | [38] | [39] | [40] | [41] | [42] | [43] | [44] | [45] | [46] | [47] | [48] | [49] | [50] | [51] | [52] | [53] | [54]

CC(NC(=O)C(Cc1ccc(OC(=O)c2ccccc2)cc1)NC(=O)OC(C)(C)C)C(=O)NCC(=O)NC(Cc1ccccc1)NC(=O)OCc1ccccc1 (stereo not drawn)
> 100 µM: [1] | [2] | [3] | [4] | [5] | [6] | [7] | [8] | [9] | [55] | [10] | [11] | [12] | [13] | [15] | [56] | [16] | [17] | [18] | [19] | [20] | [21] | [22] | [24] | [25] | [27] | [28] | [29] | [30] | [31] | [32] | [33] | [57] | [35] | [36] | [37] | [38] | [39] | [40] | [41] | [42] | [43] | [44] | [45] | [46] | [47] | [48] | [49] | [50] | [51] | [52] | [53] | [54] | [58]

CCOc1ccc(NC(=O)C(=O)C2C(=O)Nc3ccccc3S2=O)cc1 (stereo not drawn)
> 100 µM: [1] | [2] | [3] | [4] | [5] | [6] | [7] | [8] | [9] | [55] | [10] | [12] | [13] | [14] | [15] | [56] | [16] | [17] | [18] | [19] | [21] | [22] | [23] | [24] | [26] | [27] | [28] | [29] | [30] | [31] | [32] | [33] | [57] | [35] | [36] | [37] | [38] | [59] | [39] | [41] | [42] | [43] | [44] | [46] | [47] | [49] | [50] | [51] | [52] | [53] | [54] | [58]

CNC(=S)N/N=C(\C)c1cc(OC)ccc1O
> 100 µM: [1] | [2] | [3] | [4] | [5] | [6] | [7] | [8] | [9] | [10] | [11] | [12] | [13] | [14] | [56] | [16] | [17] | [18] | [20] | [21] | [22] | [23] | [24] | [25] | [26] | [27] | [28] | [29] | [30] | [32] | [33] | [34] | [57] | [35] | [36] | [37] | [38] | [59] | [39] | [40] | [41] | [42] | [43] | [44] | [45] | [46] | [47] | [48] | [49] | [50] | [51] | [52] | [53] | [54] | [58]

CC1CC2=C(C1)C(C1(C)C(=O)CC3C(C1=O)C3(C)C)C(C)C2=O (stereo not drawn)
> 100 µM: [1] | [2] | [3] | [4] | [5] | [6] | [7] | [8] | [9] | [55] | [10] | [11] | [12] | [13] | [14] | [15] | [56] | [16] | [17] | [18] | [19] | [20] | [21] | [22] | [23] | [24] | [25] | [27] | [28] | [29] | [30] | [31] | [32] | [33] | [34] | [57] | [35] | [36] | [37] | [38] | [59] | [39] | [40] | [41] | [42] | [43] | [44] | [45] | [46] | [47] | [48] | [49] | [50] | [51] | [52] | [53] | [54] | [58]
